What was measured:
[1] = test system: OGA in HEK293 cells inducible for P301L mutant human Tau (isoform 2N4R); assay: OGA cellular assay: immunocytochemical detection of O-GlcNAcylated proteins (CTD110.6 antibody) after 6 h incubation; format: cell-based; details: for Emax / EC50: Homo sapiens, HEK293, 6 h; for Emax / Cellular Emax (%): maximum = Thiamet G 200 uM; for EC50: read-out: Cellular hOGA, pEC50 (converted)
Method: HEK293 cells inducible for P301L mutant human Tau (isoform 2N4R) were established at Janssen. Thiamet-G was used for both plate validation (high control) and as reference compound (reference EC50 assay validation). OGA inhibition is evaluated through the immunocytochemical (ICC) detection of O-GlcNAcylated proteins by the use of a monoclonal antibody (CTD110.6; Cell Signaling, #9875) detecting O-GlcNAcylated residues as previoulsy described (Dorfmueller et al. 2010 Chemistry & biology, 17:1250). Inhibition of OGA will result in an increase of O-GlcNAcylated protein levels resulting in an increased signal in the experiment. Cell nuclei are stained with Hoechst to give a cell culture quality control and a rough estimate of immediate compounds toxicity, if any. ICC pictures are imaged with a Perkin Elmer Opera Phenix plate microscope and quantified with the provided software Perkin Elmer Harmony 4.1.
Cells were propagated in DMEM high Glucose (Sigma, # D5796) following standard procedures. 2 days before the cell assay cells are split, counted and seeded in Poly-D-Lysine (PDL) coated 96-wells (Greiner, #655946) plate at a cell density of 12,000 cells per cm^2 (4,000 cells per well) in 100 μl of Assay Medium (Low Glucose medium is used to reduce basal levels of GlcNAcylation) (Park et al. 2014 The Journal of biological chemistry 289:13519). At the day of compound test medium from assay plates was removed and replenished with 90 μl of fresh Assay Medium. 10 μl of compounds at a 10 fold final concentration were added to the wells. Plates were centrifuged shortly before incubation in the cell incubator for 6 hours. DMSO concentration was set to 0.2%. Medium is discarded by applying vacuum. For staining of cells medium was removed and cells washed once with 100 μl D-PBS (Sigma, # D8537). From next step onwards unless other stated assay volume was always 50 μl and incubation was performed without agitation and at room temperature. Cells were fixed in 50 μl of a 4% paraformaldehyde (PFA, Alpha aesar, #043368) PBS solution for 15 minutes at room temperature. […] Before analysis samples were washed 2 times manually for 5 minutes in ICC base buffer.
Imaging is performed using Perkin Elmer Phenix Opera using a water 20× objective and recording 9 fields per well. Intensity readout at 488 nm is used as a measure of O-GlcNAcylation level of total proteins in wells. To assess potential toxicity of compounds nuclei were counted using the Hoechst staining. IC50-values are calculated using parametric non-linear regression model fitting. As a maximum inhibition Thiamet G at a 200 uM concentration is present on each plate. In addition, a concentration response of Thiamet G is calculated on each plate.

[2] = biological target: T1, recombinant human Meningioma Expressed Antigen 5 (MGEA5), also referred to as O-GlcNAcase (OGA) (Homo sapiens, UniProt O60502); assay: OGA biochemical assay: inhibition of FM-GlcNAc hydrolysis, fluorescence; protocol A (10 nM OGA, 1 h) or protocol B (2 nM OGA, 6 h); details: Enzymatic protocol B (2 nM OGA, 6 h); for IC50: read-out: Enzymatic hOGA, pIC50 (converted)
T1 construct: Full length OGA enzyme was purchased at OriGene (cat # TP322411); purchased OriGene TP322411
T1 sequence (O60502 1-916): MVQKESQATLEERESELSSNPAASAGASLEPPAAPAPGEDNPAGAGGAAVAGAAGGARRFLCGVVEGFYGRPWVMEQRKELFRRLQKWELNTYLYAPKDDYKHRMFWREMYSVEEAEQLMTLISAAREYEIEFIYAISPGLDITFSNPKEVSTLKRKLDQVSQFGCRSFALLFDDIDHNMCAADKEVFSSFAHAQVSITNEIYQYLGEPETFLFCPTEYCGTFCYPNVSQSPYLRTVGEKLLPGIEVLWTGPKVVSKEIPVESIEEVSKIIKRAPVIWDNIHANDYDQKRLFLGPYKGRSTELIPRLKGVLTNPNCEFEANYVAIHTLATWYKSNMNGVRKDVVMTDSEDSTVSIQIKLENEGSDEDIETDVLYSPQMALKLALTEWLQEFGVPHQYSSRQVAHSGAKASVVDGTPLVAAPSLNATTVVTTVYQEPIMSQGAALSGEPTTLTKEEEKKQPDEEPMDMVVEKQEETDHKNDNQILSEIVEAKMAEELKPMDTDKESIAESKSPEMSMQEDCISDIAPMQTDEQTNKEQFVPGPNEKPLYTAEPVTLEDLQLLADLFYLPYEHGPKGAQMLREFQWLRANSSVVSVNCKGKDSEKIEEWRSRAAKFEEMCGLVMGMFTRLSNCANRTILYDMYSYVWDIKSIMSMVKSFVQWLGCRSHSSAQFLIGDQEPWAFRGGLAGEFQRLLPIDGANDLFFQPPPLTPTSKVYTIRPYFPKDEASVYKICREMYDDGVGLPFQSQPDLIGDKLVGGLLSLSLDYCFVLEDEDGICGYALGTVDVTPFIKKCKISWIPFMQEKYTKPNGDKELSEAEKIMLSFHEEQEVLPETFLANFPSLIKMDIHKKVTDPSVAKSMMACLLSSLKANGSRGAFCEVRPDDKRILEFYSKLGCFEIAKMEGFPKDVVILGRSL
Source text: The assay is based on the inhibition of the hydrolysis of fluorescein mono-3-D-N-Acetyl-Glucosamine (FM-GlcNAc) (Mariappa et al. 2015, Biochem J 470:255) by the recombinant human Meningioma Expressed Antigen 5 (MGEA5), also referred to as O-GlcNAcase (OGA). The hydrolysis FM-GlcNAc (Marker Gene technologies, cat # M1485) results in the formation of ß-D-N-glucosamineacetate and fluorescein. The fluorescence of the latter can be measured at excitation wavelength 485 nm and emission wavelength 538 nm. An increase in enzyme activity results in an increase in fluorescence signal. Full length OGA enzyme was purchased at OriGene (cat # TP322411). The enzyme was stored in 25 mM Tris.HCl, pH 7.3, 100 mM glycine, 10% glycerol at −20° C. Thiamet G and GlcNAcStatin were tested as reference compounds (Yuzwa et al. 2008 Nature Chemical Biology 4:483; Yuzwa et al. 2012 Nature Chemical Biology 8:393). The assay was performed in 200 mM Citrate/phosphate buffer supplemented with 0.005% Tween-20. 35.6 g Na2HPO42H2O (Sigma, # C0759) were dissolved in 1 L water to obtain a 200 mM solution. 19.2 g citric acid (Merck, #1.06580) was dissolved in 1 L water to obtain a 100 mM solution. pH of the sodiumphosphate solution was adjusted with the citric acid solution to 7.2. The buffer to stop the reaction consists of a 500 mM Carbonate buffer, pH 11.0. 734 mg
FM-GlcNAc were dissolved in 5.48 mL DMSO to obtain a 250 mM solution and was stored at −20° C. OGA was used at a 10 nM (protocol A) or 2 nM (protocol B) concentration and FM-GlcNAc at a 100 uM final concentration. Dilutions were prepared in assay buffer.
50 nl of a compound dissolved in DMSO was dispensed on Black Proxiplate™ 384 Plus Assay plates (Perkin Elmer, #6008269) and 3 μl fl-OGA enzyme mix added subsequently. Plates were pre-incubated for 60 min at room temperature and then 2 μl FM-GlcNAc substrate mix added. […] Plates were briefly centrifuged for 1 min at 1000 rpm and incubate at room temperature for 1 h (10 nM OGA, protocol A) or 6 h (2 nM OGA, protocol B). To stop the reaction 5 μl STOP buffer were added and plates centrifuge again 1 min at 1000 rpm. Fluorescence was quantified in the Thermo Scientific Fluoroskan Ascent or the PerkinElmer EnVision with excitation wavelength 485 nm and emission wavelength 538 nm.
For analysis a best-fit curve is fitted by a minimum sum of squares method. From this an IC50 value and Hill coefficient was obtained. High control (no inhibitor) and low control (saturating concentrations of standard inhibitor) were used to define the minimum and maximum values.

SMILES	Emax [1] [%]	EC50 [1] [nM]	Emax [2] [%]	IC50 [2] [nM]	Cellular hOGA; pEC50 [1]	Cellular Emax (%) [1] [%]	Enzymatic Emax (%) [2] [%]	Enzymatic hOGA; pIC50 [2]
Cc1cc(O[C@@H]2CCCN(C(C)c3ccc4nccnc4c3)C2)cc(C)n1 (mixture of isomers) [compound 19]	73.3	1380	100	6.92				
Cc1cc(C[C@H]2CCN(C(C)c3ccc4sc(C)nc4c3)C2)cc(C)n1 (mixture of isomers) [compound 87]	28.6	> 1000	101	58.9				
Cc1cc(C[C@H]2CCN(C(C)c3ccc4scnc4c3)C2)cc(C)n1 (mixture of isomers) [compound 88]	50.7	603						
Cc1cc(C[C@H]2CCN(C(C)c3ccc4c(c3)OCO4)C2)cc(C)n1 (mixture of isomers) [compound 93]	37.7	> 1000	98.4	309				
Cc1cc(CC2CCN(C(C)c3ccc4c(c3)OCCO4)C2)cc(C)n1.Cl.Cl (mixture of isomers) [compound 95]					<6	38.2	101	6.81
Cc1cc(C[C@H]2CCN(C(C)c3ccc4nccnc4c3)C2)cc(C)n1 (mixture of isomers) [compound 100]	23.1	> 1000	97	427				
CC(=O)Nc1ncc(CN2CCC[C@H](Oc3ccnc(C)c3)C2)s1 (racemic) [compound 17]	96.2	389	100	64.6				
CC(=O)Nc1ncc(C(C)N2CCCC(COc3cc(C)nc(C)c3)C2)s1 (racemic) [compound 133]	98.9	11.2	101	3.89				
Cc1cc(CC2CCCN(C(C)c3ccc4nccnc4c3)C2)cc(C)n1 (racemic) [compound 139]	75	170	101	10				
Cc1cc(CC2CCCN(C(C)c3ccc4c(c3)OCO4)C2)cc(C)n1 (racemic) [compound 141]	83.5	87.1	102	11				
Cc1cc(CC2CCCN(C(C)c3ccc4c(c3)OCCO4)C2)cc(C)n1 (racemic) [compound 142]	100	60.3	102	4.9				
Cc1cc(CC2CCCN(C(C)c3ccc4scnc4c3)C2)cc(C)n1 (racemic) [compound 148]	105	56.2	102	6.31				
CC(=O)Nc1ncc(CN2CCCC(Nc3ccnc(C)c3)C2)s1 (racemic) [compound 155]	84.2	14.8	101	6.03				
Cc1cc(NC2CCCN(C(C)c3ccc4nccnc4c3)C2)cc(C)n1 (racemic) [compound 156]	89	468	97.4	43.7				
CC(=O)Nc1ncc(CN2CCC[C@H](Cc3cc(C)nc(C)n3)C2)s1 (single isomer, unassigned) [compound 25]	97.8	9.77	101	1.82				
CC(=O)Nc1ncc(CN2CCC[C@@H](Cc3cc(C)nc(C)n3)C2)s1 (single isomer, unassigned) [compound 26]	72.3	525	99.5	26.9				
Cc1cc(CC2CCCN(C(C)c3ccc4sc(C)nc4c3)C2)cc(C)n1 (single isomer, unassigned) [compound 118]			100	46.8	6.24	62.2		
Cc1cc(CC2CCCN(C(C)c3ccc4sc(C)nc4c3)C2)cc(C)n1 (single isomer, unassigned) [compound 119]				2.88	7.38	107.3	103.7	
CC(=O)Nc1ncc(CN2CCCC(c3cc(C)nc(C)c3)C2)s1 (single isomer, unassigned) [compound 130]	99	13.2	103	9.12				
CC(=O)Nc1ncc(CN2CCC(F)(F)C(COc3cc(C)nc(C)n3)C2)s1 (centres unmarked) [compound 162]			91	1050				
CC(=O)Nc1ncc(CN2CCC(F)C(COc3cc(C)nc(C)n3)C2)s1 (centres unmarked) [compound 163]			101	63.1				
CC(=O)Nc1ncc(CN2CCC[C@H](Cc3cc(C)nc(C)c3)C2)n1C [compound 174]			40.9	> 10000				

Source: patent US20200079766A1, “MONOCYCLIC OGA INHIBITOR COMPOUNDS” (Janssen Pharmaceutica NV, priority 2016, published 2020)
